pEC50: −log10 of the molar value.
Target: CXCR7 (Homo sapiens (Human), UniProt P25106)
Assay: PathHunter CHO-K1 CXCR7 b-arrestin assay (agonistic activity)
Assay type: cell-based
Conditions: PathHunter CHO-K1 CXCR7 b-arrestin cell line
Method in brief: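 CHO-K1 cells co-expressing ProLink-tagged CXCR7 and EA-fused β-arrestin 2 (enzyme fragment complementation); compounds added in HBSS/20 mM HEPES/0.2% BSA after 3–4 h in OPTIMEM, 90 min at 37 °C. Chemiluminescent β-gal signal read after 1 h detection at room temperature; EC50 reported as geometric mean of several measurements.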

Chain of CXCR7 (P25106 whole entry): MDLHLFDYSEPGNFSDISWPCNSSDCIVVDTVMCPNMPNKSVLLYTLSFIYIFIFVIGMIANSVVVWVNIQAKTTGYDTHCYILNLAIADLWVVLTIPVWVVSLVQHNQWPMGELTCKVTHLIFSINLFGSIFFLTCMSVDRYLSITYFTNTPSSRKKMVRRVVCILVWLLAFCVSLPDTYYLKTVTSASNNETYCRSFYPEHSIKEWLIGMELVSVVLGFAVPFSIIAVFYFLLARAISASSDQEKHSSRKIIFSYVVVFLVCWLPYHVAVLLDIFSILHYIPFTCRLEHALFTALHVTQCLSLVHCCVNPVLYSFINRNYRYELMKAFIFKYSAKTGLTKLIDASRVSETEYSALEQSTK
Chain of CXCR7 (P32121 whole entry partner): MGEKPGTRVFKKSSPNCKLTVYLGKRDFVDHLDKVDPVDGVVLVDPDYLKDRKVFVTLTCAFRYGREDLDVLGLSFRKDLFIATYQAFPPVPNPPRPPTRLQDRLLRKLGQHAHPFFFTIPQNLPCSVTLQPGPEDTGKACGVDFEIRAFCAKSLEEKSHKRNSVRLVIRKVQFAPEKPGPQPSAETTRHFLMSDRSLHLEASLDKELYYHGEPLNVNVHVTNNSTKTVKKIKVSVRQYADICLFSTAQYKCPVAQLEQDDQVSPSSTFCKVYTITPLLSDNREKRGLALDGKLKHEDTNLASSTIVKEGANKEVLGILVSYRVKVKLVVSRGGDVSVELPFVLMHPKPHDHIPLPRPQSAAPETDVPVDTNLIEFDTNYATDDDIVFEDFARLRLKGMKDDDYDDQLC

SMILES	pEC50
O=C(Nc1cccc(CN2CCC(C(=O)NC3CCCCC3)CC2)c1)c1ccncn1 [Example 1.006]	8.70
CC(C)(C)NC(=O)C1CCN(Cc2cccc(NC(=O)C(C)(C)c3ccccc3)c2)CC1 [Example 1.311]	9.00
Cc1ccc(C(=O)Nc2cccc(C(C)N3CCC(C(=O)NC4CCCCC4)CC3)c2)cn1 (racemic) [Example 1.181]	6.83
CC(C)(C)NC(=O)C1CCN(Cc2cccc(NC(=O)c3cnc4ccccc4c3)c2)CC1 [Example 1.233]	8.70
Cc1ccc(C(=O)Nc2cccc(CN3CCC(C(=O)NC4CCCCC4)CC3)c2Cl)s1 [Example 1.163]	6.41
Cc1cccnc1C(=O)Nc1cccc(CN2CCC(C(=O)NC3CCCCC3)CC2)c1 [Example 1.061]	9.00
Cc1ccc(C(=O)Nc2cccc(CN3CCC(C(=O)NC4CCCCC4)CC3)c2)c(C)c1 [Example 1.111]	8.40
CC(C)CN(C)C(=O)C1CCN(Cc2cccc(NC(=O)c3cncc(Cl)c3)c2)CC1 [Example 1.278]	8.22
O=C(CC1CCCCC1)Nc1cccc(CN2CCC(C(=O)NC3CCCCC3)CC2)c1 [Example 1.043]	8.05
O=C(Nc1cccc(CN2CCC(C(=O)NC3CCCCC3)CC2)c1)c1c(F)cccc1C(F)(F)F [Example 1.145]	6.37
CC(C)(C)NC(=O)C1CCN(Cc2cccc(NC(=O)c3ccc(C(F)(F)F)c[n+]3[O-])c2)CC1 [Example 1.348]	8.10
Cc1cc(C)cc(C(=O)Nc2cccc(CN3CCC(C(=O)NC4CCCCC4)CC3)c2)c1 [Example 1.112]	7.68
CC(C)(C)NC(=O)C1CCN(Cc2cccc(NC(=O)/C=C/c3ccccc3)c2)CC1 [Example 1.337]	8.10
COc1c(CN2CCC(C(=O)NC(C)(C)C)CC2)cccc1NC(=O)c1cncc(C)c1 [Example 1.320]	7.32
O=C(Nc1cccc(CN2CCC(C(=O)NC3CCCC3)CC2)c1)c1cncc(C(F)(F)F)c1 [Example 1.212]	8.70
CC(C)(C)NC(=O)C1CCN(Cc2cccc(NC(=O)c3cc(C(F)(F)F)ccn3)c2)CC1 [Example 1.242]	8.22
COc1ccc(C(=O)Nc2cccc(CN3CCC(C(=O)NC4CCCCC4)CC3)c2)cc1 [Example 1.031]	8.70
CCC(C)(C)NC(=O)C1CCN(Cc2cccc(NC(=O)c3ccc(F)c[n+]3[O-])c2)CC1 [Example 4.021, 5-Fluoro-1-oxy-pyridine-2-carboxylic acid {3-[4-(1,1-dimethyl-propylcarbamoyl)-piperidin-1-ylmethyl]-phenyl}amide]	8.70
O=C(Nc1cccc(CN2CCC(C(=O)NC3CCCCC3)CC2)c1)c1ccncc1Cl [Example 1.074]	7.22
O=C(Nc1cccc(CN2CCC(C(=O)NC3CCCCC3)CC2)c1)c1ncc[nH]1 [Example 1.038]	7.89
COc1c(CN2CCC(C(=O)NC(C)(C)C)CC2)cccc1NC(=O)c1ccc(F)cc1 [Example 1.321]	8.22
O=C(Nc1cccc(CN2CCC(C(=O)NC3CCCCC3)CC2)c1)C1CC1 [Example 1.149]	7.09

SMILES	pEC50
O=C(Nc1cccc(CN2CCC(C(=O)NC3CC3)CC2)c1)c1cc(Cl)ccn1 [Example 1.200]	7.80
Cc1cnc(C(=O)Nc2cccc(C(C)N3CCC(C(=O)NC4CCCCC4)CC3)c2)cn1 (racemic) [Example 1.185]	7.82
COc1ccc(C(=O)Nc2cccc(CN3CCC(C(=O)NC4CCCCC4)CC3)c2)cc1F [Example 1.123]	8.40
CC(C)(C)NC(=O)C1CCN(Cc2cccc(NC(=O)Cc3ccc(F)cc3Cl)c2)C1 (racemic) [Example 2.097, rac-1-{3-[2-(2-Chloro-4-fluoro-phenyl)-acetylamino]-benzyl}-pyrrolidine-3-carboxylic acid tert-butylamide]	7.43
CCc1cc(CN2CCC(C(=O)NC(C)(C)C)CC2)cc(NC(=O)c2cncc(C)c2)c1 [Example 1.330]	6.55
O=C(Nc1cccc(CN2CCC(C(=O)NC3CCCCC3)CC2)c1)c1cc(F)cc(Cl)c1 [Example 1.131]	8.40
C[C@H]1C[C@@H](C(=O)NC2CCCCC2)CCN1Cc1cccc(NC(=O)c2cccc(C(F)(F)F)n2)c1 [Example 2.105, 6-Trifluoromethyl-pyridine-2-carboxylic acid [3-((2S,4S)-4-cyclohexylcarbamoyl-2-methyl-piperidin-1-ylmethyl)-phenyl]-amide or 6-trifluoromethyl-pyridine-2-carboxylic acid [3-((2R,4R)-4-cyclohexylcarbamoyl-2-methyl-piperidin-1-ylmethyl)-phenyl]-amide]	8.52
CC(C)(C)NC(=O)C1CCN(Cc2cccc(NC(=O)Cc3ccc(Cl)cc3Cl)c2)CC1 [Example 1.244]	8.30
Cc1cncc(C(=O)Nc2ccnc(CN3CCC(C(=O)NC4CCCCC4)CC3)n2)c1 [Example 1.285]	6.70
CN(C)c1cccc(C(=O)Nc2cccc(CN3CCC(C(=O)NC4CCCCC4)CC3)c2)c1 [Example 1.144]	7.14
Cc1sc(C(=O)Nc2cccc(CN3CCC(C(=O)NC4CCCCC4)CC3)c2)cc1CC(C)C [Example 1.004]	7.40
Cc1cccc(C(=O)Nc2cccc(C(C)N3CCC(C(=O)NC4CCCCC4)CC3)c2)n1 (racemic) [Example 1.182]	8.15
O=C(Cc1ccc(F)cc1Cl)Nc1cccc(CN2CCC(C(=O)NC3CCCCC3)C2)c1 (racemic) [Example 2.100, rac-1-{3-[2-(2-Chloro-4-fluoro-phenyl)-acetylamino]-benzyl}-pyrrolidine-3-carboxylic acid cyclohexylamide]	6.79
Cc1cc(C(=O)Nc2cccc(CN3CCC(C(=O)NC4CCCCC4)CC3)c2)ccn1 [Example 1.055]	8.00
Cc1nc2cc(C(=O)Nc3cccc(CN4CCC(C(=O)NC(C)(C)C)CC4)c3)ccc2s1 [Example 1.354]	6.97
CC(c1cccc(NC(=O)c2ccc(C(F)(F)F)cc2)c1)N1CCC(C(=O)NC2CCCCC2)CC1 (racemic) [Example 1.177]	7.43
Cc1cc(C(=O)Nc2cccc(CN3CCC(C(=O)NC(C)(C)C)CC3)c2)c(Cl)nn1 [Example 1.324]	7.29
CCc1ccc(NC(=O)c2cccc(C(F)(F)F)n2)cc1CN1CCC(C(=O)NC(C)(C)C)CC1 [Example 1.332]	7.80
Cc1ncncc1C(=O)Nc1cccc(CN2CCC(C(=O)NC3CCCCC3)CC2)c1 [Example 1.086]	6.28
Cc1ccc(CN2CCC(C(=O)NC(C)(C)C)CC2)cc1NC(=O)c1cccc(C(F)(F)F)n1 [Example 1.301]	8.70
CC(C)(C)NC(=O)C1CCN(Cc2cccc(NC(=O)Cc3ccccc3Cl)c2)CC1 [Example 1.258]	9.00
CC(C)(C)NC(=O)C1CCN(Cc2cccc(NC(=O)Cc3ncccn3)c2)CC1 [Example 1.264]	7.05

SMILES	pEC50
CC(c1cccc(NC(=O)c2cnc(N3CCCC3)s2)c1)N1CCC(C(=O)NC2CCCCC2)CC1 (racemic) [Example 1.194]	6.52
CC(C)(C)NC(=O)C1CCN(Cc2cccc(NC(=O)c3ccc4cnccc4n3)c2)CC1 [Example 1.234]	8.70
CC(C)(C)NC(=O)C1CCN(Cc2cccc(NC(=O)C3Cc4ccccc43)c2)CC1 (racemic) [Example 1.271]	9.00
CC(C)c1ccc(C(=O)Nc2cccc(CN3CCC(C(=O)NC4CCCCC4)CC3)c2)cc1 [Example 1.098]	7.92
O=C(Nc1cccc(CN2CCC(C(=O)NC3CCCCC3)CC2)c1)c1cc(C(F)(F)F)ccn1 [Example 1.155]	7.92
Cc1ccnc(C(=O)Nc2cccc(CN3CCC(C(=O)NC4CCCCC4)CC3)c2)c1 [Example 1.082]	8.40
Cc1nc(C)c(CC(=O)Nc2cccc(CN3CCC(C(=O)NC(C)(C)C)CC3)c2)s1 [Example 1.262]	6.92
CC(C)(C)NC(=O)C1CCN(Cc2cccc(NC(=O)CC3Cc4ccccc4C3)c2)CC1 [Example 1.272]	8.70
O=C(Cc1ccc(Cl)cc1)Nc1cccc(CN2CCC(C(=O)NC3CCCCC3)CC2)c1 [Example 1.037]	7.47
O=C(Nc1ccnc(CN2CCC(C(=O)NC3CCCCC3)CC2)n1)c1cccc(C(F)(F)F)n1 [Example 1.284]	6.65
CCc1ccc(NC(=O)c2ccc(F)cc2)cc1CN1CCC(C(=O)NC(C)(C)C)CC1 [Example 1.334]	7.77
CC(C(=O)Nc1cccc(CN2CCC(C(=O)NC(C)(C)C)CC2)c1)c1ccccc1 (racemic) [Example 1.079]	8.52
COc1ccc(CC(=O)Nc2cccc(CN3CCC(C(=O)NC4CCCCC4)CC3)c2)cc1 [Example 1.042]	7.10
CC(c1cccc(NC(=O)Cc2cccc(C(F)(F)F)c2)c1)N1CCC(C(=O)NC2CCCCC2)CC1 (racemic) [Example 1.173]	7.59
O=C(Nc1cccc(CN2CCC(C(=O)NC3CCCCC3)CC2)c1)c1ccc(F)cc1Cl [Example 1.133]	8.15
O=C(Nc1cccc(CN2CCC(C(=O)NC3CCCCC3)CC2)c1)c1ccc(C(F)(F)F)cc1F [Example 1.134]	8.10
C[C@H]1C[C@@H](C(=O)NC(C)(C)C)CCN1Cc1cccc(NC(=O)c2cccc(C(F)(F)F)n2)c1 (racemic) [Example 2.102, rac-6-Trifluoromethyl-pyridine-2-carboxylic acid [3-((2S*,4S*)-4-tert-butylcarbamoyl-2-methyl-piperidin-1-ylmethyl)-phenyl]-amide]	8.40
Cc1cncc(C(=O)Nc2cccc(CN3CCC(C(=O)NC4CCCCC4)CC3)c2)c1 [Example 1.060]	8.40
CC(c1cccc(NC(=O)c2ccccc2)c1)N1CCC(C(=O)NC2CCCCC2)CC1 (stereo not drawn) [Example 1.165]	7.64
CC(C)(C)NC(=O)C1CCN(Cc2cccc(NC(=O)c3ccnnc3)c2)CC1 [Example 1.323]	7.18
O=C(Nc1cccc(CN2CCC(C(=O)NC3CCCCC3)CC2)c1)c1ccc(Cl)nc1 [Example 1.067]	8.70
CC(C)(C)NC(=O)C1CCN(Cc2cccc(NC(=O)c3cccc(C(F)(F)F)n3)c2)CC1 [Example 1.228]	9.00

Source: patent US9428456B2, “1-[m-carboxamido(hetero)aryl-methyl]-heterocyclyl-carboxamide derivatives” (Actelion Pharmaceuticals Ltd., priority 2012, dated 2016)
